Test results as given in patent US11787847B2, “Method of identifying malodor modulating compounds” (FIRMENICH SA, priority 2017, dated 2023).
pEC50: −log10 of the molar value.

Assays:
Experiment in all cases: cell-based dose-response, cAMP increase by HTRF, HEK293T cells (endogenous RTP1 activated) co-transfected with human Golf, Lucy-FLAG-Rho tagged receptor
mouse receptor Olfr1097 = molecular target: T1, mouse receptor Olfr1097 (Mus musculus, UniProt Q8VGA2)
T1 construct: cAMP HTRF
T1 sequence (Q8VGA2 1-315): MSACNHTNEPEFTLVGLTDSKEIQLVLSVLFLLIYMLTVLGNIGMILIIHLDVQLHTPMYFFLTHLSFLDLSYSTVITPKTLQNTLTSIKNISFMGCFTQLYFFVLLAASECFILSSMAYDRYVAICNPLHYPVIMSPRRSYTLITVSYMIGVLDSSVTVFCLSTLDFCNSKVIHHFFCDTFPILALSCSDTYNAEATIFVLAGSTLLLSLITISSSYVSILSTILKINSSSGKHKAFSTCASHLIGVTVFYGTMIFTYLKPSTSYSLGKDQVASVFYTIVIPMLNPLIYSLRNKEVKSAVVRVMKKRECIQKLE
Description: (§1) Functional dose-response experiments were performed to evaluate the level of DMTS activity of the modified cell line expressing individual putative DMTS receptors. Using a cell-based assay, mouse receptor Olfr1193, Olfr1093, Olfr1097, Olrf166, Olfr169, Olfr738 and Olfr742, and human receptor OR4S2 and OR52N5 were tested in an HEK293T cell line wherein the endogenous RTP1 gene has been activated and the odorant receptor chaperone protein was expressed (described in WO2016/201153). The mouse receptor genes were tagged with a Lucy-FLAG®-Rho tag combination and the human receptors were tagged with a Rho-FLAG® tag combination resulting in a tag:receptor fusion protein for the cell based assay. Receptor genes were co-transfected with the canonical olfactory human G-protein alpha subunit Golf gene and were exposed to increasing concentrations of the malodor odorant. Co-expression of the human Golf activates the Gs transduction pathway that leads to an internal cAMP increase upon binding to the appropriate ligand. Odorant-induced activity was detected by measuring the cAMP increase in the cytosol using an Homogeneous Time Resolved Fluorescence (HTRF) based kit (CisBio, cAMP dynamic 2 kit, cat. 62AM4PEJ). […] The activity levels are reported by the potency of the DMTS induced-response for each receptor as a measure of the EC50 value (the effective concentration at which the receptor responds at its half-maximal activation efficacy level for a given compound).
(§2) Functional dose-response experiments were performed to confirm the DMTS activity on the DMTS receptors identified in Example 2 and to further characterize their response to DMDS. Using the same cell-based assay described in Example 2, mouse receptors Olfr1193, Olfr1093, Olfr1097, Olfr166, Olfr169, Olfr738, Olfr742 and of human odorant receptor OR4S2 were tested with increasing concentration of DMTS, DMDS or butyric acid (control). […] A weak response for OR4S2 and Olfr169 to butyric acid was visible but was too weak to consider butyric acid as a representative ligand for these receptors. The activity levels are reported by the potency of DMTS or DMDS induced-response for each receptor as a measure of the EC50 value, EC50DMTS and EC50DMDS respectively. […] Competitive antagonists at the malodor binding site of these receptors have the potential to reduce the unpleasant perception of both DMTS and DMDS.

mouse receptor Olfr166 = molecular target: T2, mouse receptor Olfr166 (Mus musculus, UniProt Q0VEL6)
T2 construct: cAMP HTRF
T2 sequence (Q0VEL6 1-312): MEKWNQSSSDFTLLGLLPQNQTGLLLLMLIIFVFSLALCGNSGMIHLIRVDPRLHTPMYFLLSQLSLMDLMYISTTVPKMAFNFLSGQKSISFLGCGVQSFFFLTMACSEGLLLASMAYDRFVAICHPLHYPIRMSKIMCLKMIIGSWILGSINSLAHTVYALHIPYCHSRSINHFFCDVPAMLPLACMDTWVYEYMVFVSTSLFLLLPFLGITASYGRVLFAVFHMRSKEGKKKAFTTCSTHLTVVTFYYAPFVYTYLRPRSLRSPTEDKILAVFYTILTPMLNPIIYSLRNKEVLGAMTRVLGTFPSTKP
Description: as §1, §2

mouse receptor Olfr738 = molecular target: T3, mouse receptor Olfr738 (Mus musculus, UniProt L7N1X7)
T3 construct: cAMP HTRF
T3 sequence (L7N1X7 1-311): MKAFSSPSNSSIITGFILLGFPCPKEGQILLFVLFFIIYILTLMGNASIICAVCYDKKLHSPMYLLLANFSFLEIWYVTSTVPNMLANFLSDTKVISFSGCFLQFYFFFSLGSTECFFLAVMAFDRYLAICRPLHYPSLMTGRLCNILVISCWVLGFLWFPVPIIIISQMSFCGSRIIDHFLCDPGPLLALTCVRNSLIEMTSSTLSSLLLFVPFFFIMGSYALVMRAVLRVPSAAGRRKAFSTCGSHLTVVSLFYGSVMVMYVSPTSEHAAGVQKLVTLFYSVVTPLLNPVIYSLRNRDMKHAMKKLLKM
Description: as §1, §2

mouse receptor Olfr1193 = molecular target: T4, mouse receptor Olfr1193 (Mus musculus, UniProt A2AV13)
T4 construct: cAMP HTRF
T4 sequence (A2AV13 1-318): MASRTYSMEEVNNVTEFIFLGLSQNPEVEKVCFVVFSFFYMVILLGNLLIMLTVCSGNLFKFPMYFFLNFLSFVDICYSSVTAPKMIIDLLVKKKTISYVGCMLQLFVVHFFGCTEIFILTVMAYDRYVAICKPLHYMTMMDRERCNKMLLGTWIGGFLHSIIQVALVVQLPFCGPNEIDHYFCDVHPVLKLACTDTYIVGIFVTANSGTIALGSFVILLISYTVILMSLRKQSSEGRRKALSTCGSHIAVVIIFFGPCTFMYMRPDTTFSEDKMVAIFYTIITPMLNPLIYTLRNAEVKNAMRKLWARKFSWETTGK
Description: as §1, §2

mouse receptor Olfr742 = molecular target: T5, mouse receptor Olfr742 (Mus musculus, UniProt A2RTP5)
T5 construct: cAMP HTRF
T5 sequence (A2RTP5 1-311): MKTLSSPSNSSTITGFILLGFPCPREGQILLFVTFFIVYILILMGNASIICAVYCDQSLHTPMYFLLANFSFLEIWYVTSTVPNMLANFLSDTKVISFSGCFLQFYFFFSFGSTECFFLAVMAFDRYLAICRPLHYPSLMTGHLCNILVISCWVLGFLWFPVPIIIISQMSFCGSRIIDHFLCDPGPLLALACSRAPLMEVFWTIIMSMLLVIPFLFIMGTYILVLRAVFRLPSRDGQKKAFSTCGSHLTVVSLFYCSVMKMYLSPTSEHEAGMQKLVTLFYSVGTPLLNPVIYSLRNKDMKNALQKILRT
Description: as §1, §2

CSSSC [DMTS, dimethyl trisulfide]
pEC50 (mouse receptor Olfr1097; FIG. 2, Example 2, SEQ ID NO: 6): 4.77 | pEC50 (mouse receptor Olfr1097; FIG. 5, Example 5, SEQ ID NO: 6): 4.74 | pEC50 (mouse receptor Olfr166; FIG. 2, Example 2, SEQ ID NO: 8): 5.30 | pEC50 (mouse receptor Olfr166; FIG. 5, Example 5, SEQ ID NO: 8): 4.96 | pEC50 (mouse receptor Olfr738; FIG. 2, Example 2, SEQ ID NO: 12): 3.43 | pEC50 (mouse receptor Olfr738; FIG. 5, Example 5, SEQ ID NO: 12): 3.72 | pEC50 (mouse receptor Olfr1193; FIG. 2, Example 2, SEQ ID NO: 2): 4.26 | pEC50 (mouse receptor Olfr1193; FIG. 5, Example 5, SEQ ID NO: 2): 4.80 | pEC50 (mouse receptor Olfr742; FIG. 2, Example 2, SEQ ID NO: 14): 5.15 | pEC50 (mouse receptor Olfr742; FIG. 5, Example 5, SEQ ID NO: 14): 4.80
